{
  "source": "patent US20250161419A1",
  "about": "“SERPIN PEPTIDES AND METHODS OF USING THE SAME” (SERPIN PHARMA, LLC, priority 2022, published 2025)",
  "type_in_all_cases": "in vivo, mouse",
  "key": {"[1]": {"system": "CCL24", "test": "OVA-challenge allergic inflammation model, CCL24 in BALF by ELISA", "details": "OVA-challenge in sensitized mice, treated during challenge phase, vs vehicle", "procedure": "Mice were subjected to the OVA-challenge allergic inflammation model and treated with vehicle or SP16 during the challenge phase. The bronchoalveolar lavage fluid (BALF) was analyzed for cytokines via ELISA.\nThe ova-induced model of allergic inflammation is a widely used model of eosinophilic driven allergic diseases."}, "[2]": {"system": "TLR4", "test": "Immunoblot of injured sciatic nerve two days after PNL, TLR4", "details": "2 μg/g s.c.", "procedure": "Neuropathic pain model: Mice (n=30) were randomly assigned to two different groups: SP163M (2 μg/g; s.c. 100 μl) and vehicle (H20 s.c. 100 μl). Mice were treated 1 h prior to partial nerve ligation (PNL) and then daily at least 1 h prior to behavior testing for 2 weeks. PNL studies were performed as previously disclosed^59 and adapted for mice.^57 Male mice were anesthetized with 3% isoflurane (Vetone, USA) in 1.5 L/min oxygen (Praxair, USA) and maintained with 2.5% isoflurane. An incision was made along the long axis of the femur. […] Filaments were presented in a consecutive fashion either ascending or descending using the up-down method as previously disclosed^60 and modified for mice.^57,61 The filament that caused paw withdrawal 50% of the time (the 50% PWT) was determined. […]\nImmunoblots of sciatic nerve: Sciatic nerves were harvested 2 days after PNL to identify early molecular and cellular changes. […] Nerves were lysed in RIPA buffer and equal amounts of protein (20 μg) from nerves lysates, as determined by BCA Protein Assay (Bio-Rad, Hercules, CA, USA), were subjected to 10% SDS-PAGE and electro-transferred to nitrocellulose membranes. […] Primary antibodies were detected with HRP-conjugated species-specific secondary antibodies (Cell Signaling Technology, Danvers, MA, USA; cat #7076S or 4S; 1:5000). […]"}, "[3]": {"system": "eosinophil infiltration into the lungs of mice", "test": "OVA-induced allergic inflammation model, eosinophils in BALF by flow cytometry", "details": "p=0.04", "procedure": "FIG. 15A: mice were subjected to the OVA-challenge allergic inflammation model and treated with vehicle, SP16, or A1AT during the challenge phase. The BALF was collected and analyzed for the percent of eosinophils and compared to saline (non-challenged) mice, vehicle OVA induced mice, or SP16 treated OVA induced mice.\nThe impact of SP16 treatment on eosinophilic infiltration in mice was assessed using the OVA-induced allergic inflammation model. The number of eosinophils in the bronchoalveolar lavage fluid was quantified by flow cytometry."}, "[4]": {"system": "IL-4", "test": "MC903 AD model, IL-4 in ear lysate by ELISA", "details": "topical, vs MC903", "procedure": "(§1) Mice were treated with SP16 in 70% EtOH (MC903+SP16) or drug vehicle (MC903). Normal control (NC) mice were treated with EtOH only. Ears were measured for PAR2 protein expression through western blot analysis (quantitative analysis after normalization to beta-actin shown) (n=3-5). TSLP was measured in both the ears and serum by ELISA (N=3-5). Scratching was assessed over a 3 minute period after a 5-minute acclimatization period and the number of scratches are shown (n=3). IL-4 was measured in ear lysate via ELISA (N=3-5)."}, "[5]": {"system": "MC903 induced atopic dermatitis and pruritis in mice", "test": "MC903 (calcipotriol) induced AD-like inflammatory skin model, topical treatment: dermatitis score, ear volume, scratching", "procedure": "SP16 (in 70% ethanol) was applied topically to the ears on the days of the MC903 applications (MC903+SP16). Drug vehicle (70% EtOH) was applied to control animals (MC903) and normal control animals (NC) received EtOH in place of MC903. In-life parameters: Dermatitis score (FIG. 16A) and ear volume (FIG. 16B) measured on days 0, 3, 7, 9, 11 and 14. […] Clinical Dermatitis Score (score 0-4 for each parameter)-erythema, scale/dryness, edema, excoriation/erosion (total score 0-16).\nas §1"}, "[6]": {"system": "PAR2", "test": "MC903 AD model, PAR2 protein expression in ears by western blot", "details": "topical, vs MC903", "procedure": "as §1"}},
  "data": [
    {"sequence": "VKFNKPFVFLMIEQNTK (SP16 peptide core sequence including the LRP1 binding site; listed as Homo sapiens)", "values": [
      {"measurement": "CCL24 in BALF", "setting": "[1]", "value": "significantly reduces CCL24"},
      {"measurement": "TLR4 expression in injured sciatic nerve (immunoblots)", "setting": "[2]", "value": "robustly down regulated TLR4 expression"},
      {"measurement": "eosinophil infiltration into the lungs (eosinophils in BALF)", "setting": "[3]", "value": "reduces eosinophil infiltration into the lungs"},
      {"measurement": "IL-4 release in the skin tissue (ear lysate)", "setting": "[4]", "value": "significantly reduced"},
      {"measurement": "disease (dermatitis score, ear volume)", "setting": "[5]; topical solution (1%) in 70% ethanol, 14-day period, vs vehicle-treated mice", "value": "significant improvement in disease vs. vehicle-treated mice"},
      {"measurement": "pruritis (number of scratches over 3 minutes)", "setting": "[5]; topical, vs vehicle (MC903) treated mice", "value": "significantly reduces pruritis"},
      {"measurement": "PAR2 protein expression in ears", "setting": "[6]", "value": "PAR2 and TSLP inhibition"}
    ]}
  ]
}
